Test results from ChEMBL document CHEMBL1141307, “Antimalarial benzoquinones from an endophytic fungus, Xylaria sp” (J Nat Prod, 2007).
Activity calls are given as the source filed them. The calls are words filed in the database; no cut-off is given here.

How the values were obtained:
Plasmodium falciparum = assay: Antimalarial activity against multidrug-resistant Plasmodium falciparum K1 by microculture radioisotope assay; assay type: functional, organism-based
Vero = assay: Cytotoxicity against African green monkey Vero cells after 72 hrs; assay type: cell-based; details: Chlorocebus sabaeus

| SMILES | IC50 (Plasmodium falciparum) | IC50 (Vero) | Activity (Plasmodium falciparum) | Activity (Vero) |
| --- | --- | --- | --- | --- |
| COC1=CC(=O)C(Cl)=C(C)C1=O | 1840 nM | 1350 nM |  |  |
| C[C@H]1OC(=O)c2c(O)cccc2C1O (stereo not given in full) |  |  | inactive | Not Active |
| COc1cc2c3c(oc2c(C)c1O)C(=O)C(C)=CC3=O [XYLARIAQUINONE A] | 6680 nM | > 184000 nM |  |  |
| Cc1c2ccncc2c(C)c2c1[nH]c1ccccc12 [ELLIPTECINE] |  | 2030 nM |  |  |
| C[C@H]1[C@@H](O)O[C@@H]2O[C@@]3(C)CC[C@H]4[C@H](C)CC[C@@H]1[C@@]24OO3 [ARTENIMOL] | 3.3 nM |  |  |  |
| COC1=CC(=O)C(O)=C(C)C1=O |  |  | inactive | Not Active |
